Measured values from US11168086B2, “Methods of synthesizing pyrazine compounds” (Hoffmann-La Roche Inc., priority 2015, dated 2021).

Tested on: HBV
Test: HBV inhibition assay: anti-HBV activity in vitro in HepG2.2.15 cells (extracellular HBV DNA by qPCR)
Format: cell-based
Details: five days after compound treatment, extracellular HBV DNA in culture supernatant by qPCR, concentration at which HBV replication is inhibited by 50%
In short: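 HepG2.2.15 cells (stably carrying HBV genome) treated with half-log serially diluted compounds at 0.5% DMSO final for five days. Extracellular HBV DNA in supernatant quantified by qPCR after Proteinase K digestion; EC50 is concentration giving 50% inhibition of replication.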

Structure (SMILES)	EC50 (Hepatitis B virus, 120 h) [nM]	EC50 [nM]
C[C@H]1Cn2ncc(N3CC(c4ccncc4)CC3=O)c2CN1C(=O)Nc1cc(F)c(F)c(F)c1 (stereo partly drawn) [Example 354, (6S)-6-methyl-3-[2-oxo-4-(4-pyridyl)pyrrolidin-1-yl]-N-(3,4,5-trifluorophenyl)-6,7-dihydro-4H-pyrazolo[1,5-a]pyrazine-5-carboxamide]	13	–
CC1CN(C(=O)Nc2ccc(F)c(Cl)c2)Cc2c(-c3ccc(F)cc3)cnn21 (stereo not shown) [Example 230, N-(3-chloro-4-fluoro-phenyl)-3-(4-fluorophenyl)-7-methyl-6,7-dihydro-4H-pyrazolo[1,5-a]pyrazine-5-carboxamide]	52	–
C[C@H]1Cn2ncc(N3CC(c4ccccc4)C(O)C3=O)c2CN1C(=O)Nc1cc(F)c(F)c(F)c1 (single isomer, unassigned) [Example 438-3]	–	44
C[C@H]1Cn2ncc(N3C[C@@H](C#N)CC3=O)c2CN1C(=O)Nc1cc(F)c(F)c(F)c1 [Example 240-2, (6S)-3-[(4S)-4-cyano-2-oxo-pyrrolidin-1-yl]-6-methyl-N-(3,4,5-trifluorophenyl)-6,7-dihydro-4H-pyrazolo[1,5-a]pyrazine-5-carboxamide]	9	–
C[C@H]1Cn2ncc(N3CC4(CCOCC4)CC3=O)c2CN1C(=O)Nc1ccc(F)c(Cl)c1 [Example 296, (6S)—N-(3-chloro-4-fluoro-phenyl)-6-methyl-3-(3-oxo-8-oxa-2-azaspiro[4.5]decan-2-yl)-6,7-dihydro-4H-pyrazolo[1,5-a]pyrazine-5-carboxamide]	30	–
CC1CCOC(=O)N1c1cnn2c1CN(C(=O)Nc1cc(F)c(F)c(F)c1)[C@@H](C)C2 (stereo partly drawn) [Example 426, (6S)-6-methyl-3-(4-methyl-2-oxo-1,3-oxazinan-3-yl)-N-(3,4,5-trifluorophenyl)-6,7-dihydro-4H-pyrazolo[1,5-a]pyrazine-5-carboxamide]	29	–
C[C@H]1Cn2ncc(N3CCCC3=O)c2CN1C(=O)Nc1cc(F)c(F)c(C(F)F)c1 [Example 239, (6S)—N-[3-(difluoromethyl)-4,5-difluoro-phenyl]-6-methyl-3-(2-oxopyrrolidin-1-yl)-6,7-dihydro-4H-pyrazolo[1,5-a]pyrazine-5-carboxamide]	38	–
C[C@H]1Cn2ncc(-n3cc(CO)cn3)c2CN1C(=O)Nc1cc(F)c(F)c(F)c1 [Example 342, (6S)-3-[4-(hydroxymethyl)pyrazol-1-yl]-6-methyl-N-(3,4,5-trifluorophenyl)-6,7-dihydro-4H-pyrazolo[1,5-a]pyrazine-5-carboxamide]	41	–
C[C@H]1Cn2ncc(N3CCNC3=O)c2CN1C(=O)Nc1cc(F)c(F)c(F)c1 [Example 368, (6S)-6-methyl-3-(2-oxoimidazolidin-1-yl)-N-(3,4,5-trifluorophenyl)-6,7-dihydro-4H-pyrazolo[1,5-a]pyrazine-5-carboxamide]	47	–
C[C@H]1Cn2ncc(N3CC(c4ccc(F)cn4)OC3=O)c2CN1C(=O)Nc1cc(F)c(F)c(F)c1 (stereo partly drawn) [Example 410, (6S)-3-[5-(5-fluoro-2-pyridyl)-2-oxo-oxazolidin-3-yl]-6-methyl-N-(3,4,5-trifluorophenyl)-6,7-dihydro-4H-pyrazolo[1,5-a]pyrazine-5-carboxamide]	37	–
C[C@H]1Cn2ncc(N3CC(c4ccccc4)C(O)C3=O)c2CN1C(=O)Nc1cc(F)c(F)c(F)c1 (single isomer, unassigned) [Example 438-2]	–	108
C[C@H]1Cn2ncc(N3CC4(CCOC4)CC3=O)c2CN1C(=O)Nc1ccc(F)c(Cl)c1 (stereo partly drawn) [Example 303, (6S)—N-(3-chloro-4-fluoro-phenyl)-6-methyl-3-(8-oxo-2-oxa-7-azaspiro[4.4]nonan-7-yl)-6,7-dihydro-4H-pyrazolo[1,5-a]pyrazine-5-carboxamide]	81	–
O=C(Nc1ccc(F)c(Cl)c1)N1CCn2ncc(-c3ccccc3F)c2C1 [Example 24, N-(3-chloro-4-fluoro-phenyl)-3-(2-fluorophenyl)-6,7-dihydro-4H-pyrazolo[1,5-a]pyrazine-5-carboxamide]	33	–
